Test results from patent US9585380B2, “SSAT mRNA translation repression and activation” (TEMPLE UNIVERSITY—Of The Commonwealth System of Higher …, priority 2011, dated 2017).
Where a name gives a salt, the structure may show the parent alone.

Each compound was assayed on SSAT translation (assay: Drug screening with mutant 6 SSAT-luciferase reporter construct in transfected HEK 293T cells). Conditions: Homo sapiens, 12 h; procedure of Example 6 (10 μM, mutant 6 construct, HEK 293T), increase over basal SSAT translation.
Assay type: cell-based, human
Experimental: The mutant 6 chimeric construct of Example 4 (A424C; A426C; FIG. 18G) cloned into pLEX MCS plasmid was utilized in drug screening as follows. HEK 293T cells (ATCC) were grown in DMEM supplemented with 10% fetal bovine serum and antibiotics. The HEK 293T cells were transfected with the mutant 6/pLEX MCS plasmid using HTS-Jetpei transfection reagent (Polyplus Transfection, Illkirch, France). Transfected HEK293T cells were incubated overnight at 37° C. After 24 hours, cells transfected cells in 96-well plates used for screening were treated with 10 μM of test compound from a compound library in DMSO. Untreated cells were used as the negative control, and cells treated with 10 μM DENSPM comprised a positive control. The luciferase signaling in each plate was independently analyzed using a Glomax Luminometer (Promega Corp.) by comparing the signals against the controls twelve hours after treatment.
The procedure of Example 6 was followed, screening for compounds that increase SSAT translation. The agents listed in Table 11 were identified as increasing SSAT translation by at least 35% over basal SSAT translation.

Compared with NCCNCCNCCNCCN [Tetraethylenepentamine pentahydrochloride], N=C(N)c1ccc(OCCCCCOc2ccc(C(=N)N)cc2)cc1 [Pentamidine isethionate] is lower in activation at 10 µM: 60% for the first, 36% for the second.

Compared with COc1ccc2cc(CCC(C)=O)ccc2c1 [Nabumetone], CCc1ccc(CCOc2ccc(CC3SC(=O)NC3=O)cc2)nc1 (stereo not drawn) [Pioglitazone] is lower in activation at 10 µM: 59% for the first, 50% for the second.

First: CN(C)CCOC(C)(c1ccccc1)c1ccccn1 (stereo not drawn) [Doxylamine succinate]
Second: Nc1ccc(/N=N/c2ccccc2)c(N)n1 [Phenazopyridine hydrochloride]
The activation at 10 µM of the first is higher: 62% for the first, 41% for the second.

First: c1ccc2[nH]c(-c3cscn3)nc2c1 [Tiabendazole]
Second: C[C@]12CC[C@H]3C(=CCc4cc(O)ccc43)[C@@H]1CCC2=O [Equilin]
The activation at 10 µM of the first is higher: 39% for the first, 36% for the second.

First: CC(=O)OCC(=O)[C@@]12N=C(C)O[C@@H]1C[C@H]1[C@@H]3CCC4=CC(=O)C=C[C@]4(C)[C@H]3[C@@H](O)C[C@@]12C [Deflazacort]
Second: Nc1nc(NC2CC2)c2ncn([C@H]3C=C[C@@H](CO)C3)c2n1 [Abacavir Sulfate]
The activation at 10 µM of the first is higher: 37% for the first, 36% for the second.

For Nc1[nH]c(=O)ncc1F [Flucytosine], the activation at 10 µM was 35%.

Same assay, conditions: Homo sapiens; 10 μM test compound, HEK 293T cells transfected with mutant 6 construct, luciferase signal twelve hours after treatment

Going from O=C1NCCN1CCN1CCC(c2cn(-c3ccc(F)cc3)c3ccc(Cl)cc23)CC1 [Sertindole, 1-[2-[4-[5-chloro-1-(4-fluorophenyl)-indol-3-yl]-1-piperidyl]ethyl]-imidazolidin-2-one] to COc1ccc(CCN2CCC(Nc3nc4ccccc4n3Cc3ccc(F)cc3)CC2)cc1 [Astemizole, 1-[(4-fluorophenyl)methyl]-N-[1-[2-(4-methoxyphenyl)ethyl]-4-piperidyl]benzoimidazol-2-amine], the inhibition at 10 µM falls from 99.8% to 86.2%.

Going from Cc1cc(/C=C/c2ccc3cc(N(C)C)ccc3[n+]2C)c(C)n1-c1ccccc1 [Pyrvinium pamoate, 2-[(E)-2-(2,5-dimethyl-1-phenylpyrrol-3-yl)ethenyl]-N,N,1-trimethylquinolin-1-ium-6-amine] to O=C1C=CC(=O)c2c1ccc1c2ccc2ccccc21 [Chrysene-1,4-quinone, chrysene-1,4-dione], the inhibition at 10 µM rises from 92.5% to 97.3%.

Compared with CC=C(C)C(=O)O[C@H]1[C@H](OC(C)=O)[C@@]2(CO)C(CC1(C)C)C1=CCC3[C@@]4(C)CC[C@H](O[C@@H]5O[C@H](C(=O)O)[C@@H](O[C@@H]6O[C@H](CO)[C@@H](O)[C@H](O)[C@H]6O)[C@H](O)[C@H]5O[C@@H]5O[C@H](CO)[C@@H](O)[C@H](O)[C@H]5O)[C@](C)(CO)C4CC[C@@]3(C)[C@]1(C)C[C@H]2O (stereo partly drawn) [Beta-Escin, (3α,5β,14β,16α,21α,22α)-22-acetoxy-16,23,28-trihydroxy-1-{[(2Z)-2-methylbut-2-enoyl]oxy}olean-12-en-3-yl-α-D-gulopyranosyl-(1→2)-[a-L-mannopyranosyl-(1→4)]-β-D-allopyranosiduronic acid], CC(=O)O[C@H]1C[C@H](OC2[C@@H](O)C[C@H](O[C@H]3[C@@H](O)C[C@H](O[C@H]4CC[C@@]5(C)[C@H](CC[C@@H]6[C@@H]5C[C@@H](O)[C@]5(C)[C@@H](C7=CC(=O)OC7)CC[C@]65O)C4)O[C@@H]3C)O[C@@H]2C)O[C@H](C)[C@H]1O[C@@H]1O[C@H](CO)[C@@H](O)[C@H](O)[C@H]1O (stereo partly drawn) [Lanatoside C, (3β,5β,12β)-3-{[β-D-glucopyranosyl-(1→4)-3-O-acetyl-2,6-dideoxy-β-D-ribo-hexopyranosyl-(1→4)-2,6-dideoxy-β-D-ribo-hexopyranosyl-(1→4)-2,6-dideoxy-β-D-ribo-hexopyranosyl]oxy}-12,14-dihydroxycard-20(22)-enolide] is higher in inhibition at 10 µM: 88.7% for the first, 91.8% for the second.

Compared with C=C1C(=O)O[C@H]2[C@H]1CC/C(C)=C/CC[C@@]1(C)O[C@@H]21 [Parthenolide, (1aR,7aS,10aS,10bS)-1a,5-dimethyl-8-methylene-2,3,6,7,7a,8,10a,10b-octahydrooxireno[9,10]cyclodeca [1,2-b]furan-9(1aH)-one], C[C@]12CC[C@H](O)C[C@H]1CC[C@@H]1[C@@H]2CC[C@]2(C)[C@@H](C3=CC(=O)OC3)CC[C@]12O [Digitoxigenin, 3-β,14-dihydroxy-5-β,14-β-card-20(22)-enolide] is lower in inhibition at 10 µM: 99.2% for the first, 93.4% for the second.

Going from CCCCCCCCCCCCCCCC[N+](C)(C)CCN(Cc1ccc(OC)cc1)c1ncccn1 [Thonzonium bromide, N-{2-[(4-Methoxybenzyl)(pyrimidin-2-yl)amino]ethyl}-N,N-dimethylhexadecan-1-aminium bromide] to CCCCCCCCN[C@H](C)[C@@H](O)c1ccc(SC(C)C)cc1 (relative stereo) [Suloctidil, (R*,S*)-4-((1-methylethyl)thio)-alpha-(1-(octylamino)ethyl)benzene-methanol], the inhibition at 10 µM rises from 99% to 99.9%.

First: Fc1ccc(C(OCCN2CCN(CCCc3ccccc3)CC2)c2ccc(F)cc2)cc1 [Vanoxerine dihydrochloride, 1-[2-[bis(4-fluorophenyl)methoxy]ethyl]-4-(3-phenylpropyl)piperazine•(HCl)2]
Second: O=C1NCN(c2ccccc2)C12CCN(CCCC(c1ccc(F)cc1)c1ccc(F)cc1)CC2 [Fluspirilen, 8-[4,4-Bis(4-fluorphenyl)butyl]-1-phenyl-1,3,8-triazaspiro[4,5] decan-4-on]
The inhibition at 10 µM of the first is higher: 96.9% for the first, 94.7% for the second.

First: CC(C)(C)c1ccc(C(O)CCCN2CCC(C(O)(c3ccccc3)c3ccccc3)CC2)cc1 (racemic) [Terfenadine, (RS)-1-(4-tert-butylphenyl)-4-{4-[hydroxy(diphenyl)methyl]piperidin-1-yl}-butan-1-ol]
Second: CN(C)CCOc1ccc(/C(=C(/CCCl)c2ccccc2)c2ccccc2)cc1 [Toremifene, 2-{4-[(1Z)-4-chloro-1,2-diphenyl-but-1-en-1-yl]phenoxy}-N,N-dimethylethanamine]
The inhibition at 10 µM of the first is higher: 100% for the first, 86.3% for the second.

Compared with CCCCC(CC)CNC(=N)NC(=N)NCCCCCCNC(=N)NC(=N)NCC(CC)CCCC (stereo not drawn) [Alexidine dihydrochloride, 1,1′-Hexamethylene-bis[5-(2-ethylhexyl)biguanide] dihydrochloride], C[C@H]1OC(OC2[C@@H](O)C[C@H](OC3[C@@H](O)CC(O[C@H]4CC[C@@]5(C)[C@H](CC[C@@H]6[C@@H]5C[C@@H](O)[C@]5(C)[C@@H](C7=CC(=O)OC7)CC[C@]65O)C4)O[C@@H]3C)O[C@@H]2C)C[C@H](O)C1O (stereo in doubt) [Digoxin, 4-[(3S,5R,8R,9S,10S,12R,13S,14S)-3-[(2S,4S,5R,6R)-5-[(2S,4S,5R,6R)-5-[(2S,4S,5R,6R)-4,5-dihydroxy-6-methyl-oxan-2-yl]oxy-4-hydroxy-6-methyl-oxan-2-yl]oxy-4-hydroxy-6-methyl-oxan-2-yl]oxy-12,14-dihydroxy-10,13-dimethyl-1,2,3,4,5,6,7,8,9,11,12,15,16,17-tetradecahydrocyclopenta[a]phenanthren-17-yl]-5H-furan-2-one] is lower in inhibition at 10 µM: 99.6% for the first, 93.9% for the second.

Compared with C[C@@H]1O[C@@H](O[C@@H]2C=C3CC[C@@H]4[C@H](CC[C@]5(C)[C@@H](c6ccc(=O)oc6)CC[C@]45O)[C@@]3(C)CC2)[C@H](O)[C@H](O)[C@H]1O [Proscillaridin A, (3β)-3-[(6-deoxy-α-L-mannopyranosyl)oxy]-14-hydroxybufa-4,20,22-trienolide], O=C1CCc2ccc(OCCCCN3CCN(c4cccc(Cl)c4Cl)CC3)cc2N1 [Aripiprazole, 7-{4-[4-(2,3-dichlorophenyl)piperazin-1-yl]butoxy}-3,4-dihydroquinolin-2(1H)-one] is lower in inhibition at 10 µM: 94% for the first, 92.7% for the second.

Same assay, conditions: procedure of Example 6 (10 μM, mutant 6 construct, HEK 293T), increase over basal SSAT translation

Compared with Cc1c(O)c(=O)n(-c2ccccc2)n1C [Antipyrine, 4-hydroxy], CCCCNc1ccc(C(=O)OCCN(C)C)cc1.Cl [Tetracaïne hydrochloride] is lower in “% Increase in SSAT Translation” value: 41% for the first, 40% for the second.

The compounds below were run on SSAT translation (assay: Reporter system: 5′ UTR lacking uORFs + SSAT coding sequence-luciferase chimeric construct in HEK293T cells). Conditions: wild-type SSAT-luciferase construct, luciferase 16 hours after addition, compared to untreated.
Assay type: cell-based, human
Experimental: A chimeric construct (FIG. 15A) comprising a fragment of the 5′ UTR of SSAT lacking the uORF's (see FIG. 7), the SSAT coding sequence (see FIG. 8B), and the luciferase coding sequence was prepared. The SSAT coding sequence is linked in-frame to the luciferase coding sequence. The construct was prepared using appropriate primers and template nucleic acid, and conventional PCR methods. The construct was cloned into pLEX-MCS. To evaluate the effect of small molecules on translation of the chimeric construct, the chimeric construct was transiently transfected into HEK293T cells. The small molecule to be tested was added 24 hours after transfection of the vector. Luciferase activity was evaluated 16 hours after the addition of the small molecule using the ONE-Glo™ Luciferase Assay System (Promega, Madison, Wis.). The luminescence intensity was determined using a GloMax® luminometer (Promega).
In view of the discovery of the contribution of uORF's on translational repression of SSAT mRNA, a reporter system was developed to detect pharmacophores that can modulate SSAT translation. The reporter system is a chimeric construct comprising a 5′ UTR lacking the uORF's and the SSAT coding sequence linked in-frame to the luciferase coding sequence. (FIG. 15A). The 5′ UTR comprises 66 nucleotides of the native 5′UTR immediately upstream of the starting AUG codon.
Release of translational repression of the chimeric construct was tested in the presence of several small molecules. Release of translational repression was assessed by detection of luciferase activity. The small molecules tested were: DENSPM and three uncharacterized polyamine analogs designated polyamine analog 1; polyamine analog 2; and polyamine analog 3. Cisplatin and 5-FU were tested as negative controls.

With O=c1[nH]cc(F)c(=O)[nH]1 [Mutant 5-FU, 5-FU] the “Release of translational repression of the chimeric construct (luciferase activity)” value was “about the same as in the absence of a small molecule”.
For N.N.[Cl][Pt][Cl] [cisplatin, Cisplatin], the “Release of translational repression of the chimeric construct (luciferase activity)” value was “about the same as in the absence of a small molecule”.
